According to patent US20210315831A1, “PREPARATION OF NANOSUSPENSION COMPRISING NANOCRYSTALS OF ACTIVE PHARMACEUTICAL INGREDIENTS WITH LITTLE OR NO STABILIZING AGENTS” (CENTRE NATIONAL DE LA RECHERCHE SCIENTIFIQUE, priority 2018, published 2021):
Where two headings read alike, the source gives them in different places.

How the values were obtained:
[1] = system: CT26 colon cancer cells; test: In vitro cytotoxicity, MTT test, CT26 cells; conditions: Mus musculus
[2] = in vivo; conditions: female, BALB/c, mouse, plasma, iv, 10 mg/kg
[3] = system: LLC1 Lewis lung cancer cells; test: cells; conditions: Mus musculus
[4] = Plasma pharmacokinetic in mice after intravenous injection; conditions: i.v. 10 mg/kg ETO
[5] = system: white blood cells (WBC); test: Hematological toxicity, white blood cell count in mice; format: in vivo, BALB/c female mice
Method: The drug schedule protocol was equivalent to the anticancer efficacy study. Blood samples were taken in the mice tail vein at 1, 12, 15, 17 and 22 days and transferred to Eppendorf tube containing 2 μL of EDTA for white blood cells (WBC) numbering using a MS9-5 (MS Pharmaceuticals, France).

[6] = system: Murine carcinoma tumors CT26; test: Anticancer efficacy on subcutaneous CT26 tumors in mice; conditions: 10 mg/kg ETO d8, d9 and d11, d12

COc1cc([C@@H]2c3cc4c(cc3[C@@H](O[C@@H]3O[C@@H]5CO[C@@H](C)O[C@H]5[C@H](O)[C@H]3O)[C@H]3COC(=O)[C@H]23)OCO4)cc(OC)c1O [Free Etoposide, etoposide]
IC50 ([1]; CT26, 48 h, read-out: CT26-IC50 (48 h) (μM)): 11.3 ± 1.4 µM | IC50 ([1]; CT26, 48 h, read-out: IC 50 (48 h) (μg/mL)): 8.99 µg/mL | IC50 ([1]; CT26, 72 h, read-out: CT26-IC50 (72 h) (μM)): 5.6 ± 0.1 µM | IC50 ([1]; CT26, 72 h, read-out: IC 50 (72 h) (μg/mL)): 5.17 µg/mL | AUC(0-t) [2]: 6300 ng·h/mL | MRT [2]: 1.89 min | half-life [2]: 4.89 min | IC50 ([3]; LLC1, 48 h, read-out: LLC1-IC 50 (48 h) (μM)): 1.66 ± 0.13 µM | IC50 ([3]; LLC1, 72 h, read-out: LLC1-IC 50 (72 h) (μM)): 1.05 ± 0.02 µM | Maximum amount in total mice plasma (μg/mL) ± SD (n = 6) [4]: 37.62 ± 0.85 µg/mL | White blood cell count (10^9 cells/L), Days 1 ([5]; day 1, taken as control before treatment): 8.9 ± 2.3 10^9 cells/L | White blood cell count (10^9 cells/L), Days 12 ([5]; day 12, last day of treatment, i.v. 10 mg/kg): 6.5 ± 4.4 10^9 cells/L | White blood cell count (10^9 cells/L), Days 15 ([5]; day 15, i.v. 10 mg/kg): 11.6 ± 0.9 10^9 cells/L | White blood cell count (10^9 cells/L), Days 17 ([5]; day 17, i.v. 10 mg/kg): 10.4 ± 1.3 10^9 cells/L | White blood cell count (10^9 cells/L), Days 22 ([5]; day 22, i.v. 10 mg/kg): 11.3 ± 3.4 10^9 cells/L | Time for median tumor to reach 50 mm^3 [6]: 9.5 | mice weight loss throughout the investigation [6]: a decrease is observed | Mean body weight change, d17 ([6]; second value of the cell, d17): +3.85 d17 | Mean body weight change (day of nadir) ([6]; value at nadir): −3.40 | Median Tumor Volume (mm^3 on day 12) ([6]; day 12): 69 mm^3
